Assay results published in ChEMBL document CHEMBL1687756 (Antimicrob Agents Chemother, 2010).

Experiments:
[1] = Cmax in Beagle dog at 5 mg/kg administered intramuscularly after 184 days; type: ADME, organism-based, Canis lupus familiaris; design: dose 5 mg/kg, route intramuscular; conditions: in vivo, im
[2] = Tmax in Beagle dog at 5 mg/kg administered intramuscularly after 184 days; type: ADME, organism-based, Canis lupus familiaris; design: dose 5 mg/kg, route intramuscular; conditions: in vivo, im
[3] = Drug level in Beagle dog muscle at injected site at 5 mg/kg, sc after 6 months; type: ADME, organism-based, Canis lupus familiaris, Muscle tissue; design: dose 5 mg/kg, route subcutaneous; conditions: read-out: Drug uptake
[4] = Plasma concentration in male Beagle dog at 400 mg/kg, sc after 3 months; type: ADME, organism-based, Canis lupus familiaris; design: dose 400 mg/kg, route subcutaneous
[5] = Plasma concentration in female Beagle dog at 400 mg/kg, sc after 3 months; type: ADME, organism-based, Canis lupus familiaris; design: dose 400 mg/kg, route subcutaneous
[6] = Drug level in female Beagle dog thymus at 200 mg/kg, sc after 3 months; type: ADME, organism-based, Canis lupus familiaris; design: dose 200 mg/kg, route subcutaneous; conditions: read-out: Drug uptake
[7] = Drug level in female Beagle dog thymus at 200 mg/kg administered intramuscularly after 3 months; type: ADME, organism-based, Canis lupus familiaris; design: dose 200 mg/kg, route intramuscular; conditions: im, read-out: Drug uptake
[8] = Drug level in female Beagle dog thymus at 400 mg/kg administered intramuscularly after 3 months; type: ADME, organism-based, Canis lupus familiaris; design: dose 400 mg/kg, route intramuscular; conditions: im, read-out: Drug uptake
[9] = Ratio of drug level in spleen to plasma in male Beagle dog at 200 mg/kg administered intramuscularly after 1 month; type: ADME, organism-based, Canis lupus familiaris; design: dose 200 mg/kg, route intramuscular; conditions: im
[10] = Ratio of drug level in thymus to plasma in male Beagle dog at 400 mg/kg administered intramuscularly after 1 month; type: ADME, organism-based, Canis lupus familiaris; design: dose 400 mg/kg, route intramuscular; conditions: im
[11] = Ratio of drug level in spleen to plasma in male Beagle dog at 400 mg/kg administered intramuscularly after 3 months; type: ADME, organism-based, Canis lupus familiaris; design: dose 400 mg/kg, route intramuscular; conditions: im
[12] = Ratio of drug level in thymus to plasma in male Beagle dog at 400 mg/kg administered intramuscularly after 3 months; type: ADME, organism-based, Canis lupus familiaris; design: dose 400 mg/kg, route intramuscular; conditions: im
[13] = Plasma concentration in Beagle dog at 5 mg/kg, sc after 3 months; type: ADME, organism-based, Canis lupus familiaris; design: dose 5 mg/kg, route subcutaneous
[14] = Drug level in Beagle dog liver at 5 mg/kg, sc after 6 months; type: ADME, organism-based, Canis lupus familiaris; design: dose 5 mg/kg, route subcutaneous; conditions: read-out: Drug uptake
[15] = Drug level in Beagle dog lymph node iliac at 5 mg/kg administered intramuscularly after 1 month; type: ADME, organism-based, Canis lupus familiaris; design: dose 5 mg/kg, route intramuscular; conditions: im, read-out: Drug uptake
[16] = Drug level in Beagle dog lymph node iliac at 5 mg/kg administered intramuscularly after 3 months; type: ADME, organism-based, Canis lupus familiaris; design: dose 5 mg/kg, route intramuscular; conditions: im, read-out: Drug uptake
[17] = Ratio of drug level in lymph node popliteal to plasma in Beagle dog at 5 mg/kg, sc after 1 month; type: ADME, organism-based, Canis lupus familiaris; design: dose 5 mg/kg, route subcutaneous
[18] = Drug level in Beagle dog lymph node axillar at 5 mg/kg administered intramuscularly after 6 months; type: ADME, organism-based, Canis lupus familiaris; design: dose 5 mg/kg, route intramuscular; conditions: axillary lymph node, im, read-out: Drug uptake
[19] = Ratio of drug level in spleen to plasma in Beagle dog at 5 mg/kg, sc after 3 months; type: ADME, organism-based, Canis lupus familiaris; design: dose 5 mg/kg, route subcutaneous
[20] = Drug level in male Beagle dog spleen at 400 mg/kg, sc after 1 month; type: ADME, organism-based, Canis lupus familiaris; design: dose 400 mg/kg, route subcutaneous; conditions: read-out: Drug uptake
[21] = Drug level in male Beagle dog spleen at 400 mg/kg administered intramuscularly after 1 month; type: ADME, organism-based, Canis lupus familiaris; design: dose 400 mg/kg, route intramuscular; conditions: im, read-out: Drug uptake
[22] = Drug level in female Beagle dog spleen at 400 mg/kg, sc after 1 month; type: ADME, organism-based, Canis lupus familiaris; design: dose 400 mg/kg, route subcutaneous; conditions: read-out: Drug uptake
[23] = Drug level in female Beagle dog thymus at 400 mg/kg administered intramuscularly after 1 month; type: ADME, organism-based, Canis lupus familiaris; design: dose 400 mg/kg, route intramuscular; conditions: im, read-out: Drug uptake
[24] = Ratio of drug level in thymus to plasma in female Beagle dog at 200 mg/kg, sc after 1 month; type: ADME, organism-based, Canis lupus familiaris; design: dose 200 mg/kg, route subcutaneous
Canis familiaris [25] = assay: Toxicity in Beagle dog assessed as irritation at 20 mg/kg administered intramuscularly after 3 months; type: organism-based, Canis lupus familiaris; design: dose 20 mg/kg, route intramuscular; conditions: in vivo, im, 2191.5 h
Canis familiaris [26] = assay: Toxicity in Beagle dog assessed as abscess formation at 20 mg/kg administered intramuscularly after 3 months; type: organism-based, Canis lupus familiaris; design: dose 20 mg/kg, route intramuscular; conditions: in vivo, im, 2191.5 h
[27] = AUC (0 to last) in male dog at 200 mg, sc after 85 days; conditions: plasma
[28] = Cmax in female dog at 400 mg administered intramuscularly after 29 days; conditions: in vivo, im
[29] = Tmax in female dog at 200 mg administered intramuscularly after 85 days; conditions: in vivo, im
[30] = Tmax in female dog at 400 mg administered intramuscularly after 85 days; conditions: in vivo, im

Cmax [1]: 173 ng/mL
Tmax [2]: 24 h
concentration at 4383 h [3]: 48 ng/g
concentration at 2191.5 h [4]: 48.4 ng/mL
concentration at 2191.5 h [5]: 36 ng/mL
concentration at 2191.5 h [6]: 105 ng/g
concentration at 2191.5 h [7]: 27.4 ng/g
concentration at 2191.5 h [8]: 109 ng/g
Kp at 730.5 h [9]: 1.8
Kp at 730.5 h [10]: 4
Kp at 2191.5 h [11]: 2.9
Kp at 2191.5 h [12]: 3.9
concentration at 2191.5 h [13]: 3.3 ng/mL
concentration at 4383 h [14]: 31.1 ng/g
concentration at 730.5 h [15]: 19000 ng/g
concentration at 2191.5 h [16]: 15.3 ng/g
Kp at 730.5 h [17]: 4.1
concentration at 4383 h [18]: 12.2 ng/g
Kp at 2191.5 h [19]: 3
concentration at 730.5 h [20]: 569 ng/g
concentration at 730.5 h [21]: 347 ng/g
concentration at 730.5 h [22]: 285 ng/g
concentration at 730.5 h [23]: 676 ng/g
Kp at 730.5 h [24]: 3.9
AUC(0-t) at 2040 h [27]: 97800 ng·h/mL
Cmax [28]: 6190 ng/mL
Tmax [29]: 0.55 h
Tmax [30]: 16 h
Structure (SMILES): Cc1cc(/C=C/C#N)cc(C)c1Nc1ccnc(Nc2ccc(C#N)cc2)n1 [RILPIVIRINE]
Activity (Canis familiaris [25]): Non-toxic
Activity (Canis familiaris [26]): Non-toxic
